What was measured:
[1] = tested on: HIV-1Ba-L; test: Inhibition of virus replication in MAGI-CCR5 cells (β-galactosidase reporter); assay type: cell-based; conditions: HIV-1Ba-L in MAGI-CCR5 cells; for IC50: 48 hours, β-galactosidase reporter expression, read-out: IC50
Description: (§1) The anti-viral activity of dihydropyrimidines was shown by inhibition of virus replication in MAGI-CCR5 cells. MAGI-CCR5 cells are derived from HeLa-CD4-LTR-β-galactosidase cells. The cells have been engineered to express high levels of CD4 and CCR5 and contain one copy of the HIV-1 LTR promoter driving expression of the β-galactosidase gene upon HIV-1 Tat transactivation. On the day preceding the assay, the cells were plated at 1.0×10^4 cells per well and maintained at 37° C. and 5% CO2 in a humidified incubator. Total cell count and viability was visually assessed using a hemacytometer and trypan blue exclusion.
Compounds were evaluated at six concentrations (triplicate wells/concentration). On the day of assay setup, compound dilutions were prepared at two-times (2×) the final concentrations. Media was decanted and wells were replenished with 50 μl of 2× compounds, followed by the addition of 50 μl of diluted virus. Identical uninfected assays were prepared for parallel cytotoxicity testing.
Evaluation of Dihydropyrimidines vs. HIV-1Ba-L in MAGI-CCR5 Cells

[2] = Cytotoxicity by MTS staining in uninfected MAGI-CCR5 cells; assay type: cell-based; conditions: human, read-out: TC50
Description: as §1, with “exclusion. Compounds were evaluated at six concentrations (triplicate wells/concentration). On the day of assay setup, compound dilutions were prepared at two-times (2×) the final concentrations. Media was decanted and wells were replenished with 50 μl of 2× compounds, followed by the addition of 50 μl of diluted virus. Identical uninfected assays were prepared for parallel cytotoxicity testing.” for “exclusion.”

[3] = tested on: HIV-1Ba-L; test: HIV-1Ba-L replication in PBMCs (supernatant RT end-point); conditions: HIV-1Ba-L in PBMCs, seven days, RT end-point
Description: Evaluation of Dihydropyrimidines vs. HIV-1Ba-L in Peripheral Blood Mononuclear Cells (PBMCs)
Cultures of pooled phytohemagglutinin stimulated peripheral blood mononuclear cells (PBMC) were seeded into a 96-well plate at plating density of 5×10^4 cells/well. Compounds were serially diluted into media in ½-log increments using a high test of […] and […] of each concentration (nine total concentrations). Cells were infected with HIV strains HIV-1Ba-L and NL4-3 at an MOI=0.1. The PBMCs were cultured for seven days in an humidified incubator maintained at 37° C., 5% CO2 atmosphere. At the assay end-point, the supernatant was collected and analyzed for reverse transcriptase activity. For the RT assay, tritiated thymidine triphosphate (3H-TTP, 80 Ci/mmol) was diluted 1:1 dH2O:Ethanol at 1 mCi/ml. Poly rA:oligo dT template:primer was prepared as a stock solution by combining 150 μl poly rA (20 mg/ml) with 0.5 mL oligo dT (20 units/ml) and 5.35 ml sterile dH2O followed by aliquoting (1.0 ml) and storage at −20° C. The RT reaction buffer contained of 125 ml 1.0 M EGTA, 125 ml dH2O, 125 ml 20% Triton X100, 50 ml 1.0 M Tris (pH 7.4), 50 ml 1.0 M DTT, and 40 ml 1.0 M MgCl2. The final reaction mixture was prepared by combining 1 part 3H-TTP, 4 parts dH2O, 2.5 parts poly rA:oligo dT stock and 2.5 parts reaction buffer. To each well, ten microliters of the reaction mixture and 15 μl of virus containing supernatant were added. The plates were incubated at 37° C. for 60 minutes. Following incubation, the reaction volume was spotted onto DE81 filter-mats, washed 5 times for 5 minutes each in a 5% sodium phosphate buffer or 2×SSC. […] were washed 2 times for 1 minute each in distilled water, 2 times for 1 minute each in 70% ethanol, and then dried. Incorporated radioactivity (counts per minute, CPM) was quantified using standard liquid scintillation techniques.

Molecule | TI (TC50/IC50) [1] | IC50 ([1]; Human immunodeficiency virus 1) | CC50 at 48 h [2] | IC50 [1] | IC50 [3]
CC1=C(c2nc(-c3ccc(C#N)cc3)cs2)C(c2cccnc2Cl)NC(=O)N1 (centres unmarked) [Example 4] | C (C < 50.0 to 10.0) | 1 to 5 µM | ≥ 100 µM | – | –
CC1=C(c2nc(-c3ccc(C#N)cc3)cs2)C(c2cc3ccccc3nc2Cl)NC(=O)N1 (centres unmarked) [Example 5] | D (D < 10.0) | 5 to 100 µM | ≥ 100 µM | – | –
CC1=C(c2nc(-c3ccc(C#N)cc3)cs2)C(c2ccc3ccccc3n2)NC(=O)N1 (centres unmarked) [Example 6] | C (C < 50.0 to 10.0) | 1 to 5 µM | ≥ 100 µM | – | –
CC1=C(c2nc(-c3ccc(C#N)cc3)cs2)C(c2ccccn2)NC(=O)N1 (centres unmarked) [Example 7] | C (C < 50.0 to 10.0) | 1 to 5 µM | ≥ 100 µM | – | –
CC1=C(c2nc(-c3ccc(C#N)cc3)cs2)C(c2cccnc2)NC(=O)N1 (centres unmarked) [Example 8] | C (C < 50.0 to 10.0) | 1 to 5 µM | ≥ 100 µM | – | –
CC1=C(c2nc(-c3ccc(C#N)cc3)cs2)C(c2ccncc2)NC(=O)N1 (centres unmarked) [Example 9] | C (C < 50.0 to 10.0) | 1 to 5 µM | ≥ 100 µM | – | –
CC1=C(c2nc(-c3ccc(C#N)cc3)cs2)C(c2cc3ccccc3s2)NC(=O)N1 (centres unmarked) [Example 12] | C (C < 50.0 to 10.0) | 1 to 5 µM | ≥ 100 µM | – | –
CC1=C(c2nc(-c3ccc(C#N)cc3)cs2)C(c2cc(Br)cs2)NC(=O)N1 (centres unmarked) [Example 13] | D (D < 10.0) | 5 to 100 µM | ≥ 100 µM | – | –
CC1=C(c2nc(-c3ccc(C#N)cc3)cs2)C(c2cccs2)NC(=O)N1 (centres unmarked) [Example 14] | C (C < 50.0 to 10.0) | 5 to 100 µM | ≥ 100 µM | – | –
CC1=C(c2nc(-c3ccc(C#N)cc3)cs2)C(c2nccn2C)NC(=O)N1 (centres unmarked) [Example 16] | D (D < 10.0) | > 100 µM | ≥ 100 µM | – | –
CC1=C(c2nc(-c3ccc(C#N)cc3)cs2)C(c2cncc(F)c2)NC(=O)N1 (centres unmarked) [Example 20] | A (A = TI (TC50/IC50) ≧ 100.0) | < 1 µM | ≥ 100 µM | – | –
CC1=C(c2nc(-c3ccc(C#N)cc3)cs2)C(c2cc(=O)[nH]c(=O)[nH]2)NC(=O)N1 (centres unmarked) [Example 22] | D (D < 10.0) | > 100 µM | ≥ 100 µM | – | –
CC1=C(c2nc(-c3ccc(C#N)cc3)cs2)C(c2ccnc(Cl)c2)NC(=O)N1 (centres unmarked) [Example 24] | C (C < 50.0 to 10.0) | 5 to 100 µM | ≥ 100 µM | – | –
COc1ncccc1C1NC(=O)NC(C)=C1c1nc(-c2ccc(C#N)cc2)cs1 (centres unmarked) [Example 27] | C (C < 50.0 to 10.0) | 5 to 100 µM | ≥ 100 µM | – | –
COc1ncc(C2NC(=O)NC(C)=C2c2nc(-c3ccc(C#N)cc3)cs2)cn1 (centres unmarked) [Example 31] | C (C < 50.0 to 10.0) | 1 to 5 µM | ≥ 100 µM | – | –
COc1ncc(C2NC(=O)NC(C)=C2c2nc(-c3ccc(C#N)cc3)cs2)c(OC)n1 (centres unmarked) [Example 32] | D (D < 10.0) | 5 to 100 µM | ≥ 100 µM | – | –

Molecule | TI (TC50/IC50) [1] | IC50 ([1]; Human immunodeficiency virus 1) | CC50 at 48 h [2] | IC50 [1] | IC50 [3]
CC1=C(c2nc(-c3cccs3)cs2)C(c2cccc(O)c2)NC(=O)N1 (centres unmarked) [Example 37] | D (D < 10.0) | 5 to 100 µM | ≥ 100 µM | – | –
COc1ccc(-c2csc(C3=C(C)NC(=O)NC3c3ccccc3)n2)cc1 (centres unmarked) [Example 39] | D (D < 10.0) | 5 to 100 µM | ≥ 100 µM | – | –
COc1ccc(-c2csc(C3=C(C)NC(=O)NC3c3ccc(Cl)nc3)n2)cc1 (centres unmarked) [Example 41] | D (D < 10.0) | 5 to 100 µM | 50 to 100 µM | – | –
COc1ccc(-c2csc(C3=C(C)NC(=O)NC3c3cccc(C(F)(F)F)c3)n2)cc1 (centres unmarked) [Example 45] | D (D < 10.0) | > 100 µM | ≥ 100 µM | – | –
COc1ccc(-c2csc(C3=C(C)NC(=O)NC3c3cccc(O)c3)n2)cc1 (centres unmarked) [Example 46] | D (D < 10.0) | 5 to 100 µM | ≥ 100 µM | – | –
CC1=C(c2nc(-c3ccc(C#N)cc3)cs2)C(c2ccc(F)cc2)NC(=O)N1 (centres unmarked) [Example 49] | C (C < 50.0 to 10.0) | 1 to 5 µM | ≥ 100 µM | – | –
CC1=C(c2nc(-c3ccc(C#N)cc3)cs2)C(c2cccc(Cl)c2)NC(=O)N1 (centres unmarked) [Example 51] | C (C < 50.0 to 10.0) | 5 to 100 µM | ≥ 100 µM | – | –
CC1=C(c2nc(-c3ccc(C#N)cc3)cs2)C(c2ccc(OCc3ccccc3)cc2)NC(=O)N1 (centres unmarked) [Example 52] | C (C < 50.0 to 10.0) | 1 to 5 µM | ≥ 100 µM | – | –
CC1=C(c2nc(-c3ccc(C#N)cc3)cs2)C(c2cc(F)cc(F)c2)NC(=O)N1 (centres unmarked) [Example 53] | C (C < 50.0 to 10.0) | 1 to 5 µM | ≥ 100 µM | – | –
CC1=C(c2nc(-c3ccc(C#N)cc3)cs2)C(c2ccc(N(C)C)cc2)NC(=O)N1 (centres unmarked) [Example 54] | C (C < 50.0 to 10.0) | 5 to 100 µM | 50 to 100 µM | – | –
CC1=C(c2nc(-c3ccc(C#N)cc3)cs2)C(c2ccc([N+](=O)[O-])cc2)NC(=O)N1 (centres unmarked) [Example 55] | C (C < 50.0 to 10.0) | 5 to 100 µM | ≥ 100 µM | – | –
CC1=C(c2nc(-c3ccc(C#N)cc3)cs2)C(c2ccc(F)c(C#N)c2)NC(=O)N1 (centres unmarked) [Example 56] | C (C < 50.0 to 10.0) | 5 to 100 µM | ≥ 100 µM | – | –
CC1=C(c2nc(-c3ccc(C#N)cc3)cs2)C(c2ccc(C#N)c(F)c2)NC(=O)N1 (centres unmarked) [Example 57] | C (C < 50.0 to 10.0) | 5 to 100 µM | ≥ 100 µM | – | –
CC1=C(c2nc(-c3ccc(C#N)cc3)cs2)C(c2ccc(-c3ccccc3)cc2)NC(=O)N1 (centres unmarked) [Example 58] | C (C < 50.0 to 10.0) | 1 to 5 µM | ≥ 100 µM | – | –
Maraviroc [reference compound] | – | – | – | 0.0006 µM | 0.009 µM

Reference: patent US9120787B2, “HIV replication inhibitors” (priority 2011, dated 2015)
